Test results reported in article PMC11246588, “New 1,2,4-oxadiazole derivatives as potential multifunctional agents for the treatment of Alzheimer’s disease: design, synthesis, and biological evaluation” (BMC Chemistry, 2024).
Structures can show the parent of a compound that is named as a salt. Where two headings read alike, the source gives them in different places.

Assays:
AChE [1] = biological target: T1, AChE (Homo sapiens, UniProt P22303); assay: AChE inhibitory assay (Ellman-type, brain homogenate supernatant); type: biochemical; conditions: for AChE Selectivity Index: IC50 of BuChE/ IC50 of AChE; for IC50 / AChE-IC50 (µM ± SD): means of three replicates, N.A. means no activity; for IC50: read-out: AChE-IC50 (µM ± SD)
T1 construct: from tissue; host or cells: brain homogenate supernatant
T1 sequence (P22303 32-614): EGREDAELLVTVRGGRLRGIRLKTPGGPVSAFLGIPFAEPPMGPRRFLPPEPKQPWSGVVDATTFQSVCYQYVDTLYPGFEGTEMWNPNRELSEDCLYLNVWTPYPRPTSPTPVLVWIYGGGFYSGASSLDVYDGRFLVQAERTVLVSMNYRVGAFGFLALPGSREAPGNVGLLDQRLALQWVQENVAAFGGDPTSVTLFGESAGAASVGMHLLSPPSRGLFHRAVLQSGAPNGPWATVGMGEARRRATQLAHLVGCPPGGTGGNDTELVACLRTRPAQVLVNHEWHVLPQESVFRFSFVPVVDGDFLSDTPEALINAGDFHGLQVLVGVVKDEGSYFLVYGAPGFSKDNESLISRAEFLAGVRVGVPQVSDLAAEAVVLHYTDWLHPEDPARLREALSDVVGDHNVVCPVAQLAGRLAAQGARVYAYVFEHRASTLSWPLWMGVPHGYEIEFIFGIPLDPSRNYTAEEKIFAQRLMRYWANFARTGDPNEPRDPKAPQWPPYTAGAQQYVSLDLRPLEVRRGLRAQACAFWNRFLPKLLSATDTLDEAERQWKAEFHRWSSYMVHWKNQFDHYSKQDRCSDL
Experimental: The results, which are shown in Table 1, are graphically represented in Figs. 2 and 3. […]
3.1. AChE and BuChE inhibitory assays
In ELISA plate (Bio Tec. USA), 150 μL of phosphate buffer was directly added in ELISA blank well and 130 μL of phosphate buffer was added in ELISA activity wells. To the blank and activity wells, 5 μL of substrate ACTI was added, then 20 μL brain homogenate supernatant was added in activity ELISA wells only. The plate was preincubated for 15 min at 37 °C before the addition of the second substrate (DTNB). DTNB (60 μL) was added in both the blank and activity wells. Absorbance was […]
Values obtained were analyzed and blank reading was subtracted from sample readings. The AChE and BuChE inhibition activity of tested compound was expressed as IC 50. IC50 value is the inhibitory concentration at which 50% of AChE or BuChE is repressed. […]
sample concentration using linear regression equations.

MAO-B = biological target: T2, MAO-B (Homo sapiens, UniProt P27338); assay: MAO-B inhibitory assay; type: biochemical
T2 construct: purchased Sigma M7441
T2 sequence (P27338 1-520): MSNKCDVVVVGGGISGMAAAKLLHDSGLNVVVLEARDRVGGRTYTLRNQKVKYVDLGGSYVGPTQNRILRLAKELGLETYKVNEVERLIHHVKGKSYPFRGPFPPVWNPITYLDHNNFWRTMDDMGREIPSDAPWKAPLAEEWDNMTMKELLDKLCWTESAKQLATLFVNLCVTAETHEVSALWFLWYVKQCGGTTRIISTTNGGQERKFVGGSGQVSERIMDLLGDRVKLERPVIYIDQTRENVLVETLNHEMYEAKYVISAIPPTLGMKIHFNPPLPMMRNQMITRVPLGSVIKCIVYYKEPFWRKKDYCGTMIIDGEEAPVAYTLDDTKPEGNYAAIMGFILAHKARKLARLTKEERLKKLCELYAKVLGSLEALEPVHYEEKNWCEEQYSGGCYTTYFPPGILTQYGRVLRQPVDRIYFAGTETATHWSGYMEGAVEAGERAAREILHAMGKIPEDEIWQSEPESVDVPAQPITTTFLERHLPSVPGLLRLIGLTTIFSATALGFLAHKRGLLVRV

[2] = system: human red blood cells (HRBCs); assay: Anti-hemolytic effect (hypotonic solution-induced human erythrocyte hemolysis); type: cell-based; conditions: read-out: Hemolysis-IC50 (µM ± SD)
Experimental: The inhibition of human red blood cells (HRBCs) membrane lysis under […] conditions was taken as a measure of the mechanism of anti-hemolytic activity of the synthesized 1,2,4-oxadiazole-based derivatives. […]
The test carried out triplicate. […]
It was calculated by interpolation from the graph of inhibition percentage against sample concentration using linear regression equations.
The Inhibition percentage was calculated. IC50 value is the […]
centrifugation each time for 10 min at 3000 ×g. […]
solution-induced human erythrocyte hemolysis. […]
consisted of 0.5 mL of RBCs mixed with hypotonic-buffered saline solution alone. The mixtures were incubated for 10 min at room temperature and centrifuged for 10 min at 3000 ×g and the absorbance of the supernatant was measured at 540 nm using optima spectrophotometer. The test carried out triplicate. Inhibition of hemolysis percentages were calculated. Inhibition of hemolysis activity was expressed as IC50.

[3] = DPPH radical scavenging activity; conditions: means of three replicates; N.A. means no activity; read-out: DPPH-IC50 (µM ± SD)
MAO-A = biological target: T3, MAO-A (Homo sapiens, UniProt P21397); assay: biochemical
T3 sequence (P21397 1-527): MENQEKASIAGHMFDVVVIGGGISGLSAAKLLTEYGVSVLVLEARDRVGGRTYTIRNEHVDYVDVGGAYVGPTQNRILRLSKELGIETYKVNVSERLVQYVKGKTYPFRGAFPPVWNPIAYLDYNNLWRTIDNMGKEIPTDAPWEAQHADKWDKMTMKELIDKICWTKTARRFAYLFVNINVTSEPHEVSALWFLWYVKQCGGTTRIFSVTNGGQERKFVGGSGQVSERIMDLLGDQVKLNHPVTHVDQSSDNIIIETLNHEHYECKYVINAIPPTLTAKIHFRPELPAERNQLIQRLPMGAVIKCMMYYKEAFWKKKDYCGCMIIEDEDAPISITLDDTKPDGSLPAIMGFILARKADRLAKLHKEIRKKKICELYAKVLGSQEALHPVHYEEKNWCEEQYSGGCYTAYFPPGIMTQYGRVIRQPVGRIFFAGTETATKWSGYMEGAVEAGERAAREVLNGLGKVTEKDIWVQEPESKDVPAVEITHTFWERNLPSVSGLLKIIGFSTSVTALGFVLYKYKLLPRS
Experimental: The MAO-B and MAO-A inhibitory potentials of all the synthesized 1,2,4-oxadiazole-based derivatives were evaluated. Biperiden and methylene blue (methylthioninium chloride) were used as the reference standards.
In test tube, 150 µL of 20 nM of MAO-A or MAO-B (M7441, Sigma), 150 µL of tested compound serial dilutions (0, 0.1,
0.25, 0.5,1 and 2 mg/mL), 133 µL potassium phosphate buffer and 667 µL of or benzylamine (5µM) were mixed well.
absorbance was measured at 250 nm against air after 30 s and 90 s. The Inhibition percentage was calculated.
inhibitory concentration at which 50% of MAO -A or MAO-B is repressed.

AChE [4] = biological target: T1, AChE; design: method as in PMID 18550375, PMID 33017743, PMID 36223681, PMID 34752955, PMID 26077890; conditions: Fig. 1; ref [50]–[55]; cited from earlier work
GSK-3β = system: GSK-3β; design: method as in PMID 18550375, PMID 33017743, PMID 36223681, PMID 34752955, PMID 26077890; conditions: Fig. 1; ref [50]–[55]; cited from earlier work
[5] = design: method as in PMID 18550375, PMID 33017743, PMID 36223681, PMID 34752955, PMID 26077890; conditions: Fig. 1; ref [50]–[55]; read-out: Anti-neuroinflammatory potency (IC50); cited from earlier work
[6] = inhibition of induced HRBC membrane lysis, means of three replicates

Row | SMILES | AChE Selectivity Index (AChE [1]) | IC50 (AChE [1]) [µM] | IC50 (MAO-B) [µM] | IC50 [2, 6] [µM] | IC50 [3] [µM] | IC50 (MAO-A) [µM] | also measured
1 | O=C(COc1ccccc1-c1nc(-c2ccc(C(F)(F)F)cc2)no1)N/N=C\c1ccccc1[N+](=O)[O-] [Compound 2c, (E/Z)-N’-(2-Nitrobenzylidene)-2-(2-(3-(4-(trifluoromethyl)phenyl)-1,2,4-oxadiazol-5-yl)phenoxy) acetohydrazide] | 3,100 | 0.0127 ± 0.00102 | 266 ± 13.4 | 4340 ± 126 | 464 ± 31.5 | – | –
2 | O=C(COc1ccccc1-c1nc(-c2ccccc2)no1)N/N=C\c1cnn(-c2ccccc2)n1 [Compound 3a, (E/Z)-2-(2-(3-Phenyl-1,2,4-oxadiazol-5-yl)phenoxy)-N’-((2-phenyl-2 H-1,2,3-triazol-4-yl)methylene) acetohydrazide] | – | – | – | 622 ± 23.4 | – | 85.2 ± 5.9 | AChE-IC50 (µM ± SD) (AChE [1]): nonexistent efficacy
3 | O=C(COc1ccccc1-c1nc(-c2ccccc2)no1)N/N=C\c1ccccc1[N+](=O)[O-] [Compound 2a, (E/Z)-N’-(2-Nitrobenzylidene)-2-(2-(3-phenyl-1,2,4-oxadiazol-5-yl)phenoxy)acetohydrazide] | – | 0.0339 ± 0.0029 | – | 1790 ± 63.1 | 1310 ± 31.5 | – | –
4 | NNC(=O)COc1ccccc1-c1nc(Cc2ccccc2)no1 [Compound 1b] | – | 0.031 ± 0.0024 | 535 ± 41.5 | 1190 ± 78.3 | 1280 ± 42.8 | 82.5 ± 8.7 | –
5 | COc1ccc(-c2noc(Cn3cc(Cn4c5ccccc5c(=O)c5ccccc54)nn3)n2)cc1 [V] | – | – | – | – | – | – | IC50 (AChE [4]): 11.5 µM
6 | O=c1c(O)c(-c2ccc(O)c(O)c2)oc2cc(O)cc(O)c12 [Quercetin, reference compound] | – | – | – | – | 491 ± 14.8 | – | –
7 | O=C(COc1ccccc1-c1nc(Cc2ccccc2)no1)NN1C(=O)c2ccccc2C1=O [Compound 4b, 2-(2-(3-Benzyl-1,2,4-oxadiazol-5-yl)phenoxy)-N-(1,3-dioxoisoindolin-2-yl)acetamide] | – | 0.0293 ± 0.0013 | 713 ± 22.3 | 1790 ± 89.3 | 2661 ± 26.3 | 130 ± 16.9 | –
8 | O=C(COc1ccccc1-c1nc(-c2ccc(C(F)(F)F)cc2)no1)NN1C(=O)c2ccccc2C1=O [Compound 4c, N-(1,3-Dioxoisoindolin-2-yl)-2-(2-(3-(4-(trifluoromethyl)phenyl)-1,2,4-oxadiazol-5-yl)phenoxy)acetamide] | 673 | 0.0377 ± 0.0027 | 117 ± 9.8 | 1040 ± 88.9 | – | 144 ± 22.4 | –
9 | OC(CCN1CCCCC1)(c1ccccc1)C1CC2C=CC1C2 (centres unmarked) [Biperiden HCl, reference compound] | – | – | – | – | – | – | IC50 (MAO-B; means of three replicates, N.A. means no activity, read-out: MAO-B-IC50 (µM ± SD)): 238 ± 16.3 µM
10 | Cc1cc(-c2noc(-c3ccc(OCC4CCN(Cc5cccc(F)c5)CC4)cc3)n2)ccn1 [III] | – | – | – | – | – | – | IC50 (AChE [4]): 0.07 µM
11 | O=C(COc1ccccc1-c1nc(-c2ccc(C(F)(F)F)cc2)no1)N/N=C\c1cnn(-c2ccccc2)n1 [Compound 3c, (E/Z)-N’-((2-Phenyl-2 H-1,2,3-triazol-4-yl)methylene)-2-(2-(3-(4-(trifluoromethyl)phenyl)-1,2,4-oxadiazol-5-yl)phenoxy)acetohydrazide] | – | – | – | 661 ± 23.8 | 582 ± 42.9 | 115 ± 19.5 | AChE-IC50 (µM ± SD) (AChE [1]): nonexistent efficacy
12 | O=C(O)Cc1ccccc1Nc1c(Cl)cccc1Cl [Diclofenac, reference compound] | – | – | – | – | – | – | IC50 [2]: 1120 ± 12.6 µM
13 | O=C(COc1ccccc1-c1nc(-c2ccc(C(F)(F)F)cc2)no1)NNC(=O)c1ccc2ccccc2n1 [Compound 5c, N’-(2-(2-(3-(4-(Trifluoromethyl)phenyl)-1,2,4-oxadiazol-5-yl)phenoxy)acetyl)quinoline-2-carbohydrazide] | 894 | 0.0792 ± 0.0061 | – | 521 ± 11.9 | 1140 ± 68.9 | – | –
14 | O=C(COc1ccccc1-c1nc(Cc2ccccc2)no1)N/N=C\c1ccccc1[N+](=O)[O-] [Compound 2b, (E/Z)-2-(2-(3-Benzyl-1,2,4-oxadiazol-5-yl)phenoxy)-N’-(2-nitrobenzylidene)acetohydrazide] | 36,571 | 0.00098 ± 1e-06 | 346 ± 14.3 | 4100 ± 114 | 991 ± 11.4 | 204 ± 17.9 | –
15 | O=C(COc1ccccc1-c1nc(Cc2ccccc2)no1)NNC(=O)c1ccc2ccccc2n1 [Compound 5b, N’-(2-(2-(3-Benzyl-1,2,4-oxadiazol-5-yl)phenoxy)acetyl)quinoline-2-carbohydrazide] | 627 | 0.0337 ± 0.00089 | – | 3560 ± 125 | – | – | –
16 | O=C(COc1ccccc1-c1nc(-c2ccccc2)no1)NN1C(=O)c2ccccc2C1=O [Compound 4a, N-(1,3-Dioxoisoindolin-2-yl)-2-(2-(3-phenyl-1,2,4-oxadiazol-5-yl)phenoxy)acetamide] | 1,010 | 0.0328 ± 0.0011 | 394 ± 16.3 | 522 ± 15.9 | 1660 ± 62.3 | – | –
17 | NNC(=O)COc1ccccc1-c1nc(-c2ccccc2)no1 [Compound 1a] | – | – | 359 ± 23.4 | 1620 ± 57.8 | 1220 ± 51.3 | 47.2 ± 8.1 | AChE-IC50 (µM ± SD) (AChE [1]): nonexistent efficacy
18 | CC(C)(C)c1ccc(S(=O)(=O)Nc2ccc(-c3nc(-c4ccnc(Nc5ccccc5Cl)c4)no3)cc2)cc1 [II] | – | – | – | – | – | – | IC50 (GSK-3β): 0.19 µM; IC50 [5]: 6.94 µM
19 | NNC(=O)COc1ccccc1-c1nc(-c2ccc(C(F)(F)F)cc2)no1 [Compound 1c] | – | – | 397 ± 19.6 | 657 ± 33.1 | 735 ± 12.8 | 147 ± 16.9 | AChE-IC50 (µM ± SD) (AChE [1]): nonexistent efficacy
20 | O=C(COc1ccccc1-c1nc(-c2ccccc2)no1)NNC(=O)c1ccc2ccccc2n1 [Compound 5a, N’-(2-(2-(3-Phenyl-1,2,4-oxadiazol-5-yl)phenoxy)acetyl)quinoline-2-carbohydrazide] | – | 0.0475 ± 0.0028 | 274 ± 21.1 | 2020 ± 111 | 885 ± 22.9 | – | –
21 | O=C(COc1ccccc1-c1nc(Cc2ccccc2)no1)N/N=C\c1cnn(-c2ccccc2)n1 [Compound 3b, (E/Z)-2-(2-(3-Benzyl-1,2,4-oxadiazol-5-yl)phenoxy)-N’-((2-phenyl-2 H-1,2,3-triazol-4-yl)methylene) acetohydrazide] | 735 | 0.0233 ± 0.00069 | 140 ± 8.7 | 457 ± 19.6 | 537 ± 19.3 | – | –
